Article PMC4377982 (Marine Drugs, 2015)

Molecular target: T1, human α7 nicotinic acetylcholine receptor (α7 nAChR) (Homo sapiens, UniProt P36544)
T1 construct: gene CHRNA7; human α7 nAChR transfected in GH4C1 cells
Experiment: radioligand competition with on GH4C1 cells; agonism also shown by Ca2+ imaging in Neuro2a cells with PNU120596 (EC50 […])
Format: cell-based

T1 sequence (P36544 23-502): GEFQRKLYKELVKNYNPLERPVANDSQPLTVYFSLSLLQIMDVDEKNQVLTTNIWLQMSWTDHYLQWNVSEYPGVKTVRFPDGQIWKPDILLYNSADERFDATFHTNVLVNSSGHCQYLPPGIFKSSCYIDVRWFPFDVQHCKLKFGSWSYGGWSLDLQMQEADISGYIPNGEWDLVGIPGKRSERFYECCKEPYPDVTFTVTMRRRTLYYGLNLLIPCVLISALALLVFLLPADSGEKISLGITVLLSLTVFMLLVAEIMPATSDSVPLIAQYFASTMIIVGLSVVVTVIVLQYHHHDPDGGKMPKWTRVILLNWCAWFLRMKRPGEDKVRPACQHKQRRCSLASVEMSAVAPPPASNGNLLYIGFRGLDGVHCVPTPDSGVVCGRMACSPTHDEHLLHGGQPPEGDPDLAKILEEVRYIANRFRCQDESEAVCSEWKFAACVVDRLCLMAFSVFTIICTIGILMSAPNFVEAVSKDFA

Work on `C[N+](C)(C)[C@@H](Cc1c[nH]c2cc(Br)ccc12)C(=O)[O-]` [6-BHP, 6-Bromohypaphorine] yielded an IC50 of 23 ± 1 µM.
